Measured values reported in patent US9073897B2, “Cyclic sulfonium salt, process for production of same, and α-glucosidase inhibitor comprising same” (KINKI UNIVERSITY, priority 2011, dated 2015).
pIC50: −log10 of the molar value.

Legend:
Format in all cases: biochemical
Sucrase = target: T1, Sucrase (Rattus norvegicus, UniProt P23739); experiment: α-glucosidase inhibition, rat small intestinal brush border membrane, sucrose substrate; conditions: rat small intestine brush border membrane; sucrose (74 mM); 0.1M maleate buffer (pH6.0); 37° C. for 30 minutes
T1 construct: Brush border membrane follicles of rat's small intestine were prepared; from tissue; host or cells: rat small intestine brush border membrane vesicles
T1 sequence (P23739 whole entry): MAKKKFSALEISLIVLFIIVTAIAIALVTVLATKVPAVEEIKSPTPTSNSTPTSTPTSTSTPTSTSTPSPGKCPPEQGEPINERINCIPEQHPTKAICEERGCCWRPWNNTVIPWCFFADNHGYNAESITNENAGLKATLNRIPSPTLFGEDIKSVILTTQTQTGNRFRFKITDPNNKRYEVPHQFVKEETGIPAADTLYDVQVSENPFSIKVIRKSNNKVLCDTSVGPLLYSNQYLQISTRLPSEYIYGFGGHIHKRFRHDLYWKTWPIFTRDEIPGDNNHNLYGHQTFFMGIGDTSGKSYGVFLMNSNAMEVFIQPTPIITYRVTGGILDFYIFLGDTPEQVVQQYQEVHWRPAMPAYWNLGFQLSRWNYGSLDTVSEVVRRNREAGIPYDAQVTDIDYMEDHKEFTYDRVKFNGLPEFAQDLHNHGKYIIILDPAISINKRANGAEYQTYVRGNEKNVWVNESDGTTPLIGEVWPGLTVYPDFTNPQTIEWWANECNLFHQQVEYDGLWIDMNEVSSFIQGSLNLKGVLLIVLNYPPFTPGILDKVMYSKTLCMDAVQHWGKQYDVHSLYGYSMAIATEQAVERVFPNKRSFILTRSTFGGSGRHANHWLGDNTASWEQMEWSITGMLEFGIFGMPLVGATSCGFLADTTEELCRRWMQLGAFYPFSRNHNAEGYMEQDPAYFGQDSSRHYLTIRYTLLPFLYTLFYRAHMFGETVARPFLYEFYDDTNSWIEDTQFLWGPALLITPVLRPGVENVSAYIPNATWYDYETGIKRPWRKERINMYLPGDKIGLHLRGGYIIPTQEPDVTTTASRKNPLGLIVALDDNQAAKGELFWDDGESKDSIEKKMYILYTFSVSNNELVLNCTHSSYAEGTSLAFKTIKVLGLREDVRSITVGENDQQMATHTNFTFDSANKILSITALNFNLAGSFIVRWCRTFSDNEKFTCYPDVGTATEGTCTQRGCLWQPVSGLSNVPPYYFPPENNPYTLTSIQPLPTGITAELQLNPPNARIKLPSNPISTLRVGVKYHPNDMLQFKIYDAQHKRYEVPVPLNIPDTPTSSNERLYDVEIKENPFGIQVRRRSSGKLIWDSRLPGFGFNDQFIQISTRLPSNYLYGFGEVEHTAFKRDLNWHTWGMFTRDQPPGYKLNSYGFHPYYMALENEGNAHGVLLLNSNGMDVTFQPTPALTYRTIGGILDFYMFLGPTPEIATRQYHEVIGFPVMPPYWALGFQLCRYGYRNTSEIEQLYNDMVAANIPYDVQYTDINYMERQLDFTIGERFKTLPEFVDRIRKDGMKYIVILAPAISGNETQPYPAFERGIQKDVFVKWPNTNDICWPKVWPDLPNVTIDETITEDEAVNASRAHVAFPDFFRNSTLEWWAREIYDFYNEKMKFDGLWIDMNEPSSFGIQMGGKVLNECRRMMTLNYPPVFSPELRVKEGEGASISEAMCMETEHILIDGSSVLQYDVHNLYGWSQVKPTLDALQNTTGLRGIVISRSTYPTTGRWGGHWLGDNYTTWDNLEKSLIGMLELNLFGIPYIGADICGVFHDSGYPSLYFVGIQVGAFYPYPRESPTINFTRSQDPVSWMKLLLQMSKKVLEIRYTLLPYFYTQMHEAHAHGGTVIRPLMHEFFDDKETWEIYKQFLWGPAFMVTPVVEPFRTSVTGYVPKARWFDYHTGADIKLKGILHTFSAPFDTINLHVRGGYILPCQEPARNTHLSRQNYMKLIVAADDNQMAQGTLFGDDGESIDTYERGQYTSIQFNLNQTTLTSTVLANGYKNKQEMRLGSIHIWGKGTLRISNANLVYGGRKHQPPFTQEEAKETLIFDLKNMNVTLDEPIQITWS
Method: (§1) Brush border membrane follicles of rat's small intestine were prepared in accordance with the literature (Kessler, M. et al., Biochem. Biophys. Act, 1978, 506, 136), and a suspension of the follicles in 0.1M maleate buffer (pH6.0) was used as an intraintestinal α-glucosidase (maltase, sucrose and isomaltase).
(§2) A compound to be tested was dissolved in methylsulfoxide (DMSO) and the resulting solution was diluted with 0.1M maleate buffer to prepare a solution of the testing compound (DMSO concentration: 10%). […] A 50% inhibitory concentration (IC50) was computed from the measured values.

Maltase = experiment: α-glucosidase inhibition, rat small intestinal brush border membrane, maltose substrate; conditions: rat small intestine brush border membrane; maltose (74 mM); 0.1M maleate buffer (pH6.0); 37° C. for 30 minutes
Method: as §1
A compound to be tested was dissolved in methylsulfoxide (DMSO) and the resulting solution was diluted with 0.1M maleate buffer to prepare a solution of the testing compound (DMSO concentration: 10%). A solution of a substrate (sucrose (74 mM), maltose (74 mM) or isomaltose (74 mM, […]) in the maleate buffer, a solution (25 μl) of the testing compound and the enzyme solution (25 μl) were mixed and the resulting solution was incubated at 37° C. for 30 minutes. Immediately after incubation, the resulting solution was heated by boiling water to terminate the reaction and mixed with water (150 μl). The concentration of glucose was measured by glucose oxidase method. The final concentration of DMSO in the testing solution was set to 2.5%, and no influence of DMSO on an inhibitory activity was detected. A 50% inhibitory concentration (IC50) was computed from the measured values.

Isomaltase = target: T2, Isomaltase (Rattus norvegicus, UniProt P23739); experiment: α-glucosidase inhibition, rat small intestinal brush border membrane, isomaltose substrate; conditions: rat small intestine brush border membrane; isomaltose (74 mM); 0.1M maleate buffer (pH6.0); 37° C. for 30 minutes
T2 construct: Brush border membrane follicles of rat's small intestine were prepared; from tissue; host or cells: rat small intestine brush border membrane vesicles
T2 sequence (P23739 whole entry): as above
Method: as §1, §2

Row | Structure (SMILES) | pIC50 (Sucrase) | α-glucosidase (IC50) Maltase (Maltase) | pIC50 (Isomaltase) | α-glucosidase (IC50) Sucrase (Sucrase) | α-glucosidase (IC50) Isomaltase (Isomaltase)
1 | COC(CO)C(O)C[S+]1CC(O)C(O)C1CO [Compound (Ia), 1,4-Dideoxy-1,4-[(R)-[4-deoxy-2-O-methyl-D-erythritol-4-yl]episulfoniumylidene]-D-arabitol chloride] | 5.77 | 5.3 µg/mL | 5.84 |  | 
2 | CCOC(CO)C(O)C[S+]1CC(O)C(O)C1CO [Compound (Ib), 1,4-Dideoxy-1,4-[(R)-[4-deoxy-2-O-ethyl-D-erythritol-4-yl]episulfoniumylidene]-D-arabitol chloride] | 6.37 |  | 6.02 |  | 
3 | CCCCCOC(CO)C(O)C[S+]1CC(O)C(O)C1CO [Compound (Ic), 1,4-Dideoxy-1,4-[(R)-[4-deoxy-2-O-(1-pentyl)-D-erythritol-4-yl]episulfoniumylidene]-D-arabitol chloride] | 5.81 | 1.52 µg/mL | 5.84 |  | 
4 | CCCCCCCOC(CO)C(O)C[S+]1CC(O)C(O)C1CO [Compound (Id), 1,4-Dideoxy-1,4-[(R)-[4-deoxy-2-O-(1-heptyl)-D-erythritol-4-yl]episulfoniumylidene]-D-arabitol chloride] | 6.17 | 0.8 µg/mL | 6.15 |  | 
5 | CCCCCCCCCCCCCOC(CO)C(O)C[S+]1CC(O)C(O)C1CO [Compound (Ie), 1,4-Dideoxy-1,4-[(R)-[4-deoxy-2-O-(1-tridecyl)-D-erythritol-4-yl]episulfoniumylidene]-D-arabitol chloride] | 5.53 | 1.04 µg/mL | 5.66 |  | 
6 | CC(C)(C)COC(CO)C(O)C[S+]1CC(O)C(O)C1CO [Compound (If), 1,4-Dideoxy-1,4-[(R)-[4-deoxy-2-O-neopentyl-D-erythritol-4-yl]episulfoniumylidene]-D-arabitol chloride] | 6.56 | 0.3 µg/mL | 6.07 |  | 
7 | F[B-](F)(F)F.OC[C@H](OCc1ccccc1)[C@H](O)C[S@+]1C[C@@H](O)[C@H](O)[C@H]1CO [Compound (Ig) (X = BF4), 1,4-dideoxy-1,4-[(R)-[2-O-benzyl-4-deoxy-D-erythritol-4-yl]episulfoniumylidene]-D-arabitol tetrafluoroborate] |  | 0.44 µg/mL |  | 0.32 µg/mL | 0.12 µg/mL
8 | OCC(OCc1ccccc1)C(O)C[S+]1CC(O)C(O)C1CO [Compound (Ig) (X = Cl), 1,4-Dideoxy-1,4-[(R)-[2-O-benzyl-4-deoxy-D-erythritol-4-yl]episulfoniumylidene]-D-arabitol chloride] | 5.80 | 0.58 µg/mL | 6.24 |  | 
9 | Cc1ccccc1COC(CO)C(O)C[S+]1CC(O)C(O)C1CO [Compound (Ih), 1,4-Dideoxy-1,4-[(R)-[4-deoxy-2-O-(o-methylbenzyl)-D-erythritol-4-yl]episulfoniumylidene]-D-arabitol chloride] | 5.94 | 0.66 µg/mL | 5.87 |  | 
10 | Cc1cccc(COC(CO)C(O)C[S+]2CC(O)C(O)C2CO)c1 [Compound (Ii), 1,4-Dideoxy-1,4-[(R)-[4-deoxy-2-O-(m-methylbenzyl)-D-erythritol-4-yl]episulfoniumylidene]-D-arabitol chloride] | 5.44 | 0.84 µg/mL | 6.01 |  | 
11 | Cc1ccc(COC(CO)C(O)C[S+]2CC(O)C(O)C2CO)cc1 [Compound (Ij), 1,4-Dideoxy-1,4-[(R)-[4-deoxy-2-O-(p-methylbenzyl)-D-erythritol-4-yl]episulfoniumylidene]-D-arabitol chloride] | 5.51 | 0.86 µg/mL | 5.72 |  | 
12 | OCC(OCc1ccccc1Cl)C(O)C[S+]1CC(O)C(O)C1CO [Compound (Ik), 1,4-Dideoxy-1,4-[(R)-[2-O-(o-chlorobenzyl)-4-deoxy-D-erythritol-4-yl]episulfoniumylidene]-D-arabitol chloride] | 6.63 | 0.31 µg/mL | 6.16 |  | 
13 | OCC(OCc1cccc(Cl)c1)C(O)C[S+]1CC(O)C(O)C1CO [Compound (Il), 1,4-Dideoxy-1,4-[(R)-[2-O-(m-chlorobenzyl)-4-deoxy-D-erythritol-4-yl]episulfoniumylidene]-D-arabitol chloride] | 5.68 | 0.53 µg/mL | 6.09 |  | 
14 | OCC(OCc1ccc(Cl)cc1)C(O)C[S+]1CC(O)C(O)C1CO [Compound (Im), 1,4-Dideoxy-1,4-[(R)-[2-O-(p-chlorobenzyl)-4-deoxy-D-erythritol-4-yl]episulfoniumylidene]-D-arabitol chloride] | 5.72 | 0.89 µg/mL | 5.75 |  | 
15 | OCC(OCc1ccc(C(F)(F)F)cc1)C(O)C[S+]1CC(O)C(O)C1CO [Compound (Is), 1,4-Dideoxy-1,4-[(R)-[4-deoxy-2-O-(p-trifluoromethylbenzyl)-D-erythritol-4-yl]episulfoniumylidene]-D-arabitol chloride] | 5.87 | 0.98 µg/mL | 6.04 |  | 
16 | O=[N+]([O-])c1ccc(COC(CO)C(O)C[S+]2CC(O)C(O)C2CO)cc1 [Compound (Iv), 1,4-Dideoxy-1,4-[(R)[4-deoxy-2-O-(p-nitrobenzyl)-D-erythritol-4-yl]episulfoniumylidene]-D-arabitol chloride] | 6.01 | 0.68 µg/mL | 6.23 |  | 
17 | OCc1ccc(COC(CO)C(O)C[S+]2CC(O)C(O)C2CO)cc1 [Compound (Iw), 1,4-Dideoxy-1,4-[(R)-[4-deoxy-2-O-(p-hydroxymethyl)benzyl)-D-erythritol-4-yl]episulfoniumylidene]-D-arabitol chloride] | 5.67 | 1 µg/mL | 6.10 |  | 
18 | O=S(=O)([O-])OC(CO)C(O)C[S+]1CC(O)C(O)C1CO (stereo not shown) [Salacinol, salacinol, reference compound] | 5.32 | 5.2 µg/mL | 5.41 |  | 
19 | OCC(CO)N[C@H]1C[C@](O)(CO)[C@@H](O)[C@H](O)[C@H]1O [voglibose, reference compound] | 6.08 |  | 5.10 |  | 
